Counter-ions that a name gives are not always drawn. Like-named read-outs stand apart in the source and are kept apart here.

For data set [1], the system named is patient. Put plainly: Patient case reports: alleviation of PDE-5 inhibitor headache by a co-administered agent. The data set is classed as in vivo.
Data set [2] deals with patient. Conditions: for headache side-effect of PDE-5 inhibitor: Example 4: patient, erectile dysfunction secondary to medications, hemicrania continua; for headache side-effect of Viagra: Viagra alone. The protocol: A patient with a history of migraines had difficulty sustaining an erection for long periods of time.
A patient presented with erectile dysfunction secondary to medications and hemicrania continua (a largely refractory condition consisting of a constant one-sided headache). […] They were then prescribed cafergot, a combination of ergotamine and caffeine, at a dose of 1 mg and instructed to take this with the Clalis.
A patient experienced intermittent erectile dysfunction due to stress.

The mark [3] stands for this setting: Example 3: patient with history of migraines.

Take `CC(=O)Nc1ccc(O)cc1` [acetaminophen]: the “effect on Viagra headache” value in data set [1] (setting [3]) was “had no effect on the headache”.

For the compound `CC(C)(C)NCC(O)c1ccc(O)c(CO)c1` (centres unmarked) [albuterol], the “relief of Viagra headache” value in data set [1] (Example 7: two puffs of albuterol inhaler after developing a headache from the Viagra) is on record as “headache was alleviated”.

In the case of `CN(C)CCc1c[nH]c2ccc(Cn3cncn3)cc12` [rizatriptan], the “effect on Viagra headache” value in data set [1] (Example 3: 5 mg tablet of rizatriptan with the Viagra) was “made the headache tolerable”.

On to `CN[C@@H](C)[C@@H](O)c1ccccc1` [Sudafed, pseudoephedrine hydrochloride], for which the “relief of Viagra headache” value in data set [1] (Example 1: one Sudafed tablet) is listed as “only minimal relief”; in data set [1] (Example 1: two Sudafed tablets concomitantly with the Viagra), “headache was still present but had abated enough to where they could enjoy the experience”; in data set [1] (Example 5: patient), “did not relieve the headache”. For the same compound, the “prevention of Viagra headache” value in data set [1] (Example 2: one Sudafed tablet with the Viagra) was “did not develop a headache”.

Take `CNS(=O)(=O)Cc1ccc2[nH]cc(CCN(C)C)c2c1` [Imitrex, sumatriptan succinate]: the “relief of Viagra headache” value in data set [1] (Example 5: Imitrex nasal spray at a dose of 25 mg) is on record as “alleviated the headache to the point where they could enjoy the sex”.

Take `CC(C)Cc1ccc(C(C)C(=O)O)cc1` (centres unmarked) [Ibuprofen]: in data set [1] (setting [3]), the “effect on Viagra headache” value is recorded as “had no effect on the headache”.

Turning to `CN1CC(=O)N2[C@H](c3ccc4c(c3)OCO4)c3[nH]c4ccccc4c3C[C@@H]2C1=O` [Clalis, tadalafil], the “headache side-effect of PDE-5 inhibitor” value in data set [2] is “exacerbated their headaches”.

`Cn1c(=O)c2c(ncn2C)n(C)c1=O` [caffeine]: the “relief of Viagra headache” value in data set [1] (Example 1: caffeine administered prior to taking the Viagra) was “did not help”; in data set [1] (Example 5: patient) it was “did not relieve the headache”.

As for `CCCc1nn(C)c2c(=O)[nH]c(-c3cc(S(=O)(=O)N4CCN(C)CC4)ccc3OCC)nc12` [Viagra, sildenafil citrate], the “headache side-effect of Viagra” value in data set [2] (Example 1: patient, erectile dysfunction secondary to low testosterone) is “inability to use Viagra because of headaches”; in data set [2] (Example 2: patient without erectile dysfunction), “bothered by headaches”; in data set [2] (setting [3]), “intolerable headaches”; in data set [2] (Example 5: patient, intermittent erectile dysfunction due to stress), “could not tolerate the headache”; in data set [2] (Example 6: patient with psychologic erectile dysfunction), “experiencing headaches”; in data set [2] (Example 7: patient), “suffered from headaches”. Further, the “headache side-effect of PDE-5 inhibitor” value in data set [2] is “exacerbated their headaches”.

`N[C@@H](Cc1c[nH]c2ccccc12)C(=O)O` [L-tryptophan]: in data set [1] (Example 6: L-tryptophan supplements the night before sexual intercourse), the “prevention of Viagra headache” value is recorded as “headache-free sex”.

Source of the values: patent publication US20100104624A1, “COMBINATION THERAPY USING PHOSPHODIESTERASE INHIBITORS” (priority 2008, published 2010).
